In paper PMC6627609, “Targeting Quorum Sensing: High-Throughput Screening to Identify Novel LsrK Inhibitors” (International Journal of Molecular Sciences, 2019):
Where a name gives a salt, the structure may show the parent alone.

Target: LsrK (Salmonella typhimurium, UniProt Q8ZKQ6)
Experiment: biochemical
Assay type: biochemical, S. typhimurium
Conditions: for Inhibition (%): 50 µM

Sequence of LsrK (Q8ZKQ6 whole entry): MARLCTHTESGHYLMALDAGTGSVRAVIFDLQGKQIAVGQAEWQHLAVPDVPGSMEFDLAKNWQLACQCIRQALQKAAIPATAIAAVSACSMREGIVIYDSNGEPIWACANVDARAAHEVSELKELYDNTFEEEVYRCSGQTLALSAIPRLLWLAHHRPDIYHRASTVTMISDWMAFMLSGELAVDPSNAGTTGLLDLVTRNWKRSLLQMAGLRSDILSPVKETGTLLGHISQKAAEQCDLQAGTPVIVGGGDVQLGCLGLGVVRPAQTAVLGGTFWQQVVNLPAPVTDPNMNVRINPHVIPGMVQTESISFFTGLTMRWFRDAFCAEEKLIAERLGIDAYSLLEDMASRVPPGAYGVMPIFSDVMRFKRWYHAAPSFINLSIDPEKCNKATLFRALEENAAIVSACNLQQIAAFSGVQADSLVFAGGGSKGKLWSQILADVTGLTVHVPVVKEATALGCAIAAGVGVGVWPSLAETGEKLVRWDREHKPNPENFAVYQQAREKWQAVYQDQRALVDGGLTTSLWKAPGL

Row | SMILES | inhibition at 50 µM [%] | further results
1 | C=C1C[C@H]2[C@@H]3C=C(C)C4=CC(=O)CC[C@]4(C)[C@H]3CC[C@]2(C)[C@@]1(OC(C)=O)C(C)=O [MELENGESTROL ACETATE] | 1 | –
2 | OC[C@H]1O[C@@](CO)(O[C@H]2O[C@H](CO)[C@@H](O)[C@H](O)[C@H]2O)[C@@H](O[C@H]2O[C@H](CO)[C@@H](O)[C@H](O)[C@H]2O)[C@@H]1O [MELEZITOSE] | 2 | –
3 | OC[C@H]1O[C@H](OCC2O[C@@H](O)[C@H](O)[C@@H](O)[C@@H]2O)[C@H](O)[C@@H](O)[C@H]1O (some centres unmarked) [MELIBIOSE] | – | Inhibition (%): 3
4 | Cc1cnc(NC(=O)C2=C(O)c3ccccc3S(=O)(=O)N2C)s1 [MELOXICAM SODIUM] | 0 | –
5 | C[N+]1(C)CCCC(OC(=O)C(O)(c2ccccc2)c2ccccc2)C1 (centres unmarked) [MEPENZOLATE BROMIDE] | 3 | –
6 | Cc1ccccc1OCC(O)CO (centres unmarked) [MEPHENESIN] | 1 | –
7 | Cc1cccc(C)c1NC(=O)C1CCCCN1C (centres unmarked) [MEPIVACAINE HYDROCHLORIDE] | 15 | –
8 | O=C([O-])c1ccccc1-c1c2cc(Br)c(=O)cc-2oc2[c]([Hg+])c([O-])c(Br)cc12.[Na+].[Na+].[OH-] [MERBROMIN] | – | Inhibition (%): 119
9 | S=c1[nH]cnc2nc[nH]c12 [MERCAPTOPURINE] | 1 | –
10 | Nc1ccc(O)c(C(=O)O)c1 [MESALAMINE] | 105 | –
11 | CC(=O)Nc1cccc(O)c1 [METACETAMOL] | 1 | –
12 | C=N[C@@H](C(=O)N[C@@H]1C(=O)N2[C@@H]1SC(C)(C)[C@@H]2C(=O)[O-])c1ccccc1.[Na+] [METAMPICILLIN SODIUM] | – | Inhibition (%): 2
13 | CC(C)NCC(O)c1cc(O)cc(O)c1 (centres unmarked) [METAPROTERENOL] | 3 | –
14 | C[C@H](N)[C@H](O)c1cccc(O)c1 [METARAMINOL BITARTRATE] | 9 | –
15 | Cc1cc(C)cc(OCC2CNC(=O)O2)c1 (centres unmarked) [METAXALONE] | 0 | –
16 | CN1C[C@H](CNC(=O)OCc2ccccc2)C[C@@H]2c3cccc4c3c(cn4C)C[C@H]21 [METERGOLINE] | 3 | –
17 | C=C1c2cccc(O)c2C(=O)C2=C(O)[C@]3(O)C(=O)C(C(N)=O)=C(O)[C@@H](N(C)C)[C@@H]3[C@@H](O)[C@H]12 [METHACYCLINE HYDROCHLORIDE] | 97 | –
18 | C1N2CN3CN1CN(C2)C3 [METHENAMINE] | 2 | –
19 | COc1cccc(OC)c1C(=O)N[C@@H]1C(=O)N2[C@@H]1SC(C)(C)[C@@H]2C(=O)O [METHICILLIN SODIUM] | 1 | –
20 | COC(=O)c1cc(O)c(=O)c2c(O)c(O)ccc2c1 [METHYL 7-DESHYDROXYPYROGALLIN-4-CARBOXYLATE] | 112 | –
21 | COC(=O)c1c(C)cc(O)cc1O [METHYL ORSELLINATE] | 0 | –
22 | COc1c2c(cc3occ(-c4ccc5c(c4)OCO5)c(=O)c13)OC(C)(C)C=C2 [METHYL ROBUSTONE] | 1 | –
23 | Cc1cc(C(C)(C)CC(C)(C)C)ccc1OCCOCC[N+](C)(C)Cc1ccccc1.[Cl-] [METHYLBENZETHONIUM CHLORIDE] | – | Inhibition (%): 89
24 | CN(C)c1ccc2nc3ccc(=[N+](C)C)cc-3sc2c1 [METHYLENE BLUE] | 3 | –
25 | CC[C@@H](CO)NC(=O)[C@@H]1C=C2c3cccc4[nH]cc(c34)C[C@H]2N(C)C1 [METHYLERGONOVINE MALEATE] | 1 | –
26 | Cc1cc(=O)[nH]c(=S)[nH]1 [METHYLTHIOURACIL] | 4 | –
27 | COc1cc(OC)c(C(C)=O)c(OC)c1 [METHYLXANTHOXYLIN] | – | Inhibition (%): 4

Row | SMILES | inhibition at 50 µM [%] | further results
28 | Cc1ccccc1N1C(=O)c2cc(S(N)(=O)=O)c(Cl)cc2NC1C (centres unmarked) [METOLAZONE] | 1 | –
29 | Cc1ncc([N+](=O)[O-])n1CCO [METRONIDAZOLE] | 0 | –
30 | CN(C)c1ccc(O)c2c1C[C@H]1C[C@H]3[C@H](N(C)C)C(O)=C(C(N)=O)C(=O)[C@@]3(O)C(O)=C1C2=O [MINOCYCLINE HYDROCHLORIDE] | 71 | –
31 | CO[C@@]12[C@H](COC(N)=O)C3=C(C(=O)C(C)=C(N)C3=O)N1C[C@@H]1N[C@@H]12 [MITOMYCIN C] | 0 | –
32 | Cl.Cl.O=C1c2c(O)ccc(O)c2C(=O)c2c(NCCNCCO)ccc(NCCNCCO)c21 [MITOXANTHRONE HYDROCHLORIDE] | – | Inhibition (%): 2
33 | NC(=O)C[S+]([O-])C(c1ccccc1)c1ccccc1 (centres unmarked) [MODAFINIL] | 1 | –
34 | CCOC(=O)[N-]c1cn(N2CCOCC2)n[o+]1 [MOLSIDOMINE] | 0 | –
35 | C[C@H]1C(=O)O[C@@H]2CCN3CC=C(COC(=O)[C@](C)(O)[C@]1(C)O)[C@H]23 [MONOCROTALINE] | 111 | –
36 | Cc1ccsc1/C=C/C1=NCCCN1C [MORANTEL CITRATE] | 0 | –
37 | O=c1c(O)c(-c2ccc(O)cc2O)oc2cc(O)cc(O)c12 [MORIN] | 154 | –
38 | CO[C@@]1(NC(=O)C(C(=O)O)c2ccc(O)cc2)C(=O)N2C(C(=O)O)=C(CSc3nnnn3C)CO[C@@H]21 (some centres unmarked) [MOXALACTAM DISODIUM] | 1 | –
39 | CC(=O)Oc1cc(C(C)C)c(OCCN(C)C)cc1C.Cl [MOXISYLYTE HYDROCHORIDE] | – | Inhibition (%): 2
40 | COc1c(-c2coc3cc4c(cc3c2=O)CC(O)C(C)(C)O4)ccc2c1C=CC(C)(C)O2 (centres unmarked) [MUNDULONE] | 0 | –
41 | CC1=CC2C(CC1=O)C(C)=CCC2C(C)C (centres unmarked) [MUUROLLADIE-3-ONE] | 1 | –
42 | COc1c(C)c2c(c(O)c1C/C=C(\C)CCC(=O)O)C(=O)OC2 [MYCOPHENOLIC ACID] | 1 | –
43 | c1cncc(C2=NCCC2)c1 [MYOSMINE] | 2 | –
44 | O=c1c(O)c(-c2cc(O)c(O)c(O)c2)oc2cc(O)cc(O)c12 [MYRICETIN] | 14 | –
45 | CNCc1ccccc1.Cl [N-METHYLBENZYLAMINE HYDROCHLORIDE] | – | Inhibition (%): 0
46 | NC(N)=NC(=O)c1nc(Cl)c(N2CCCCCC2)nc1N [N.N-HEXAMETHYLENEAMILORIDE] | – | Inhibition (%): 1
47 | CCOc1ccc2ccccc2c1C(=O)N[C@@H]1C(=O)N2[C@@H]1SC(C)(C)[C@@H]2C(=O)O [NAFCILLIN SODIUM] | 23 | –
48 | COc1ccc2cc([C@H](C)CO)ccc2c1 [NAPROXOL] | 0 | –
49 | C[C@@H]1C/C=C/C=C/C=C/C=C/[C@H](O[C@@H]2O[C@H](C)[C@@H](O)[C@H](N)[C@@H]2O)C[C@@H]2O[C@](O)(C[C@@H](O)C[C@H]3O[C@@H]3/C=C/C(=O)O1)C[C@H](O)[C@H]2C(=O)O [NATAMYCIN] | 12 | –
50 | CC(C)[C@H]1CC[C@H](C(=O)N[C@H](Cc2ccccc2)C(=O)O)CC1 [NATEGLINIDE] | 1 | –
51 | CN1CCOC(c2ccccc2)c2ccccc2C1 (centres unmarked) [NEFOPAM] | 1 | –
52 | CC(C)=CCC/C(C)=C\CO [NEROL] | 1 | –
53 | NC(=O)c1cccnc1 [NIACINAMIDE] | 1 | –
54 | O=C(CCNNC(=O)c1ccncc1)NCc1ccccc1 [NIALAMIDE] | 3 | –

Row | SMILES | inhibition at 50 µM [%] | further results
55 | O=C(Nc1ccc([N+](=O)[O-])cc1Cl)c1cc(Cl)ccc1O [NICLOSAMIDE] | 0 | –
56 | CN1CCC[C@H]1c1cccnc1.O=C(O)C(O)C(O)C(=O)O.O=C(O)C(O)C(O)C(=O)O [NICOTINE DITARTRATE] | – | Inhibition (%): 0
57 | OCc1cccnc1 [NICOTINYL ALCOHOL TARTRATE] | 1 | –
58 | COC(=O)C1=C(C)NC(C)=C(C(=O)OC)C1c1ccccc1[N+](=O)[O-] [NIFEDIPINE] | 98 | –
59 | O=C(O)C1CCCNC1 (centres unmarked) [NIPECOTIC ACID] | 0 | –
60 | COC(=O)C1=C(C)NC(C)=C(C(=O)OCC(C)C)C1c1ccccc1[N+](=O)[O-] (centres unmarked) [NISOLDIPINE] | 154 | –
61 | CCOC(=O)C1=C(C)NC(C)=C(C(=O)OC)C1c1cccc([N+](=O)[O-])c1 (centres unmarked) [NITRENDIPINE] | 1 | –
62 | NC(=O)c1cc([N+](=O)[O-])cc([N+](=O)[O-])c1 [NITROMIDE] | – | Inhibition (%): 1
63 | NC[C@H](O)c1ccc(O)c(O)c1 [NOREPINEPHRINE, reference compound] | 74 | IC50: 30 µM
64 | C#C[C@]1(O)CC[C@H]2[C@@H]3CCC4=CC(=O)CC[C@@H]4[C@H]3CC[C@@]21C [NORETHINDRONE] | 0 | –
65 | C#C[C@]1(O)CC[C@H]2[C@@H]3CCC4=C(CCC(=O)C4)[C@H]3CC[C@@]21C [NORETHYNODREL] | 1 | –
66 | c1ccc2c(c1)[nH]c1cnccc12 [NORHARMAN] | 1 | –
67 | COc1ccc2c(c1OC)C(=O)O[C@@H]2[C@H]1c2c(cc3c(c2OC)OCO3)CCN1C [NOSCAPINE HYDROCHLORIDE] | 1 | –
68 | CO[C@@H]1[C@@H](OC(N)=O)[C@@H](O)[C@H](Oc2ccc3c(O)c(NC(=O)c4ccc(O)c(CC=C(C)C)c4)c(=O)oc3c2C)OC1(C)C [NOVOBIOCIN SODIUM] | 0 | –
69 | C[C@@H]1[C@H](O)[C@@H](C)/C=C/C=C/CC/C=C/C=C/C=C/C=C/C(O[C@H]2O[C@H](C)[C@@H](O)[C@H](N)[C@@H]2O)CC2O[C@](O)(CC(O)C(O)CCC(O)CC(O)CC(O)CC(=O)O[C@H]1C)CC(O)C2C(=O)O (some centres unmarked) [NYSTATIN] | – | Inhibition (%): 41
70 | COC1=CC(=O)C(O)=C/C1=C\C=C\c1ccccc1 [OBTUSAQUINONE] | 130 | –
71 | NCC(O)c1ccc(O)cc1 (centres unmarked) [OCTOPAMINE HYDROCHLORIDE] | 2 | –
72 | CC1COc2c(N3CCN(C)CC3)c(F)cc3c(=O)c(C(=O)O)cn1c23 (centres unmarked) [OFLOXACIN] | 4 | –
73 | CC(=O)O[C@H]1CC[C@]2(C)[C@H]3CC=C4[C@@H]5CC(C)(C)CC[C@]5(C(=O)O)CC[C@@]4(C)[C@]3(C)CC[C@H]2C1(C)C [OLEANOLIC ACID ACETATE] | – | Inhibition (%): 14
74 | CCCc1nc(C(C)(C)O)c(C(=O)OCc2oc(=O)oc2C)n1Cc1ccc(-c2ccccc2-c2nnn[nH]2)cc1 [OLMESARTAN MEDOXOMIL] | 0 | –
75 | COc1ccc2[nH]c([S+]([O-])Cc3ncc(C)c(OC)c3C)nc2c1 (centres unmarked) [OMEPRAZOLE] | 6 | –
76 | COc1ccc(CC(=O)c2ccc(O)cc2O)cc1 [ONONETIN] | 5 | –
77 | NCCC[C@H](N)C(=O)O [ORNITHINE] | 1 | –
78 | O=C(O)c1cc(=O)[nH]c(=O)[nH]1 [OROTIC ACID] | 1 | –
79 | CN1CCCN=C1/C=C/c1cccc(O)c1.O=C(O)c1cc2ccccc2c(Cc2c(O)c(C(=O)O)cc3ccccc23)c1O [OXANTEL PAMOATE] | – | Inhibition (%): 6
